From patent US7030143B2, “Heterocyclic compounds” (Nippon Shinyaku Co., Ltd., priority 2000, dated 2006)
Values belong to the molecule of their own block, whether it stands above or below them.

Tests used:
KK-A^y mice = experiment: Effects on carbohydrate and lipid metabolism in KK-A^y mouse; assay type: in vivo; settings: oral, 4 days; for Percent change of each parameter compared to control group (%): AI: Atherogenic Index = (TC − HDL-C)/HDL-C; for Percent change of each parameter compared to control group (%): BG: plasma glucose level; for Percent change of each parameter compared to control group (%): Ins: plasma insulin level; for Percent change of each parameter compared to control group (%): TG: plasma triglyceride level; for Percent change of each parameter compared to control group (%): HDL-C: serum HDL-C level; for Percent change of each parameter compared to control group (%): (V)LDL-C: sum of VLDL-C and LDL-C level in serum
Procedure: The experiment was conducted using the compounds described in the Examples as test compounds and Troglitazone (5-[4-(6-hydroxy-2,5,7,8-tetramethylchroman-2-ylmethoxy)benzyl]-2,4-thiazolidinedione) as a control compound.
Each test compound was orally administered to KK-A^y mice (10 week old, male), NIDDM model animal, for 4 days at a given dosage. On the next day of the last administration, blood was collected from tail end blood vessels under non-fasting conditions to prepare heparinized plasma. Thereafter, blood was collected from an abdominal large vein under pentobarbital anesthesia to prepare serum. The glucose level (BG), triglyceride level (TG) and insulin level (Ins) in plasma were measured using a glucose CII-test Wako (Wako Pure Chemical Industries, Ltd), CLINTECH TG-S (IATORON LABORATORIES, INC.) or triglyceride E-test WAKO (Wako Pure Chemical Industries, Ltd), and a rat insulin measurement kit (Morinaga Biochemistry Research Institute) or REBIS-insulin-mouse-T (Mouse Insulin ELISA (TMB) KIT, Shibayagi Co., Ltd), respectively. Also, the sum of VLDL-C level and LDL-C level in serum (hereinafter, referred to as “(V)LDL-C”), total cholesterol level (TC) and HDL-C level were measured using a high performance liquid chromatography system for the measurement of lipoprotein cholesterol (TOSOH CORPORATION). (V)LDL-C level was measured because VLDL-C and LDL-C cannot be measured separately. Atherogenic Index (AI) was calculated according to the following formula: AI=[(TC level)−(HDL-C level)]/(HDL-C level).

Structure (SMILES): Cc1oc(-c2ccccc2)nc1CCCCCOC(C)(C)C(=O)O (hydrate or solvate) [Example 34, 2-Methyl-2-[5-(5-methyl-2-phenyloxazol-4-yl)pentyloxy]propionic acid]
melting point: 66 to 68 °C

Structure (SMILES): CCc1oc(-c2ccccc2)nc1CCCCCCOC(C)(C)C(=O)O [Example 42, 2-[6-(5-Ethyl-2-phenyloxazol-4-yl)hexyloxy]-2-methylpropionic acid]
melting point: 88.5 to 89 °C

Structure (SMILES): CC(C)(OCCCCCCc1coc(-c2ccc(F)cc2)n1)C(=O)O [Example 48, 2-{6-[2-(4-Fluorophenyl)oxazol-4-yl]hexyloxy}-2-methylpropionic acid]
melting point: 80 to 83 °C

Structure (SMILES): CC(C)(OCCCCCCCc1csc(-c2ccccc2)n1)C(=O)O [Example 49, 2-Methyl-2-[7-(2-phenylthiazol-4-yl)heptyloxy]propionic acid]
melting point: 71 to 72 °C

Structure (SMILES): Cc1ccc(-c2nc(CCCCC3COC(C)(C(=O)O)OC3)c(C)o2)cc1C (stereo not shown) [Example 73, 2-Methyl-c-5-{4-[5-methyl-2-(3,4-dimethylphenyl)-oxazol-4-yl]butyl}-1,3-dioxane-r-2-carboxylic acid]
Percent change of each parameter compared to control group (%): AI (KK-A^y mice; dose 3 mg/kg): −85%
Percent change of each parameter compared to control group (%): BG (KK-A^y mice; dose 3 mg/kg): −53%
Percent change of each parameter compared to control group (%): Ins (KK-A^y mice; dose 3 mg/kg): −68%
Percent change of each parameter compared to control group (%): TG (KK-A^y mice; dose 3 mg/kg): −92%
Percent change of each parameter compared to control group (%): HDL-C (KK-A^y mice; dose 3 mg/kg): −8%
Percent change of each parameter compared to control group (%): (V)LDL-C (KK-A^y mice; dose 3 mg/kg): −90%

Structure (SMILES): COc1ccc(-c2nc(CCCCC3COC(C)(C(=O)O)OC3)c(C)o2)cc1 (stereo not shown) [Example 74, 2-Methyl-c-5-{4-[5-methyl-2-(4-methoxyphenyl)oxazol-4-yl]butyl}-1,3-dioxane-r-2-carboxylic acid]
Percent change of each parameter compared to control group (%): AI (KK-A^y mice; dose 3 mg/kg): −72%
Percent change of each parameter compared to control group (%): BG (KK-A^y mice; dose 3 mg/kg): −18%
Percent change of each parameter compared to control group (%): Ins (KK-A^y mice; dose 3 mg/kg): −33%
Percent change of each parameter compared to control group (%): TG (KK-A^y mice; dose 3 mg/kg): −46%
Percent change of each parameter compared to control group (%): HDL-C (KK-A^y mice; dose 3 mg/kg): 55%
Percent change of each parameter compared to control group (%): (V)LDL-C (KK-A^y mice; dose 3 mg/kg): −58%

Structure (SMILES): Cc1oc(-c2cccs2)nc1CCCCC1COC(C)(C(=O)O)OC1 (stereo not shown) [Example 75, 2-Methyl-c-5-{4-[5-methyl-2-(2-thienyl)oxazol-4-yl]butyl}-1,3-dioxane-r-2-carboxylic acid]
Percent change of each parameter compared to control group (%): AI (KK-A^y mice; dose 3 mg/kg): −61%
Percent change of each parameter compared to control group (%): BG (KK-A^y mice; dose 3 mg/kg): −23%
Percent change of each parameter compared to control group (%): Ins (KK-A^y mice; dose 3 mg/kg): −29%
Percent change of each parameter compared to control group (%): TG (KK-A^y mice; dose 3 mg/kg): −47%
Percent change of each parameter compared to control group (%): HDL-C (KK-A^y mice; dose 3 mg/kg): 37%
Percent change of each parameter compared to control group (%): (V)LDL-C (KK-A^y mice; dose 3 mg/kg): −50%

Structure (SMILES): Cc1ccc(-c2nc(Cc3cccc(CC4COC(C)(C(=O)O)OC4)c3)c(C)o2)cc1 (stereo not shown) [Example 81, 2-Methyl-t-5-[3-{[5-methyl-2-(p-tolyl)oxazol-4-yl]methyl}benzyl]-1,3-dioxane-r-2-carboxylic acid]
Percent change of each parameter compared to control group (%): AI (KK-A^y mice; dose 1 mg/kg): −83%
Percent change of each parameter compared to control group (%): BG (KK-A^y mice; dose 1 mg/kg): −8%
Percent change of each parameter compared to control group (%): Ins (KK-A^y mice; dose 1 mg/kg): −21%
Percent change of each parameter compared to control group (%): TG (KK-A^y mice; dose 1 mg/kg): −62%
Percent change of each parameter compared to control group (%): HDL-C (KK-A^y mice; dose 1 mg/kg): 32%
Percent change of each parameter compared to control group (%): (V)LDL-C (KK-A^y mice; dose 1 mg/kg): −76%

Structure (SMILES): Cc1c(C)c2c(c(C)c1O)CCC(C)(COc1ccc(CC3SC(=O)NC3=O)cc1)O2 (stereo not shown) [Troglitazone, 5-[4-(6-hydroxy-2,5,7,8-tetramethylchroman-2-ylmethoxy)benzyl]-2,4-thiazolidinedione, reference compound]
Percent change of each parameter compared to control group (%): AI (KK-A^y mice; dose 300 mg/kg): −7%
Percent change of each parameter compared to control group (%): BG (KK-A^y mice; dose 300 mg/kg): −9%
Percent change of each parameter compared to control group (%): Ins (KK-A^y mice; dose 300 mg/kg): −22%
Percent change of each parameter compared to control group (%): TG (KK-A^y mice; dose 300 mg/kg): −11%
Percent change of each parameter compared to control group (%): HDL-C (KK-A^y mice; dose 300 mg/kg): −8%
Percent change of each parameter compared to control group (%): (V)LDL-C (KK-A^y mice; dose 300 mg/kg): −26%

Second part, the molecule after the results:

melting point: 70 to 71 °C
Structure (SMILES): Cc1oc(-c2ccccc2)nc1CCCCCCCOC(C)(C)C(=O)O [Example 36, 2-Methyl-2-[7-(5-methyl-2-phenyloxazol-4-yl)heptyloxy]propionic acid]

melting point: 64 to 67 °C
Structure (SMILES): Cc1oc(-c2ccc(F)cc2)nc1CCCCCCOC(C)(C)C(=O)O [Example 40, 2-{6-[2-(4-Fluorophenyl)-5-methyloxazol-4-yl]hexyloxy}-2-methylpropionic acid]

melting point: 89 to 91 °C
Structure (SMILES): Cc1oc(-c2ccc(C(C)(C)C)cc2)nc1CCCCCCOC(C)(C)C(=O)O [Example 41, 2-{6-[2-(4-tert-Butylphenyl)-5-methyloxazol-4-yl]hexyloxy}-2-methylpropionic acid]

melting point: 75 to 77 °C
Structure (SMILES): CC(C)(OCCCCCCc1coc(-c2ccccc2)n1)C(=O)O [Example 43, 2-Methyl-2-[6-(2-phenyloxazol-4-yl)hexyloxy]propionic acid]

melting point: 72 to 75 °C
Structure (SMILES): CC(C)(OCCCCCCCc1coc(-c2ccccc2)n1)C(=O)O [Example 44, 2-Methyl-2-[7-(2-phenyloxazol-4-yl)heptyloxy]propionic acid]

melting point: 59 to 61 °C
Structure (SMILES): CC(C)(OCCCCCCCCc1coc(-c2ccccc2)n1)C(=O)O [Example 45, 2-Methyl-2-[8-(2-phenyloxazol-4-yl)octyloxy]propionic acid]

melting point: 91 to 93 °C
Structure (SMILES): CC(C)(OCCCCCCCc1coc(-c2ccc(Cl)cc2)n1)C(=O)O [Example 46, 2-{7-[2-(4-Chlorophenyl)oxazol-4-yl]heptyloxy}-2-methylpropionic acid]

melting point: 67 to 74 °C
Structure (SMILES): CC(C)(OCCCCCCCc1coc(-c2ccc(F)cc2)n1)C(=O)O [Example 47, 2-{7-[2-(4-Fluorophenyl)oxazol-4-yl]heptyloxy}-2-methylpropionic acid]

melting point: 64 to 70 °C
Structure (SMILES): CC(C)(OCCCCCCCCc1csc(-c2ccccc2)n1)C(=O)O [Example 50, 2-Methyl-2-[8-(2-phenylthiazol-4-yl)octyloxy]propionic acid]

melting point: 91 to 93 °C
Structure (SMILES): Cc1oc(-c2ccncc2)nc1CCCCCCOC(C)(C)C(=O)O [Example 51, 2-Methyl-2-{6-[5-methyl-2-(4-pyridyl)oxazol-4-yl]hexyloxy}propionic acid]

melting point: 36 °C
Structure (SMILES): Cc1ccc(-c2nc(CCCCCCOC(C)(C)C#N)c(C)o2)cc1 [Example 85, 2-Methyl-2-{6-[5-methyl-2-(p-tolyl)oxazol-4-yl]-hexyloxy}propiononitrile]

melting point: 87 °C
Structure (SMILES): Cc1ccc(-c2nc(CCCCCCOC(C)(C)c3nnn[nH]3)c(C)o2)cc1 [Example 86, 5-[1-Methyl-1-{6-[5-methyl-2-(p-tolyl)oxazol-4-yl]hexyloxy}ethyl]tetrazole]
